Test results published in patent EP3995521A1, “BLOCKED POLYISOCYANATE COMPOSITION, HYDROPHILIC POLYISOCYANATE COMPOSITION, RESIN COMPOSITION, RESIN FILM AND LAMINATED BODY” (Asahi Kasei Kabushiki Kaisha, priority 2019, dated 2021).

Experiment: Surface tension of dispersing agent at 25°C by Wilhelmy method (Physical property 1-5)
Assay type: physicochemical
Details: aqueous solution of 0.1% by mass of the dispersing agent
Experimental: The surface tension may be determined by the following method, for example. An anionic dispersion agent is diluted with water to prepare an aqueous solution consisting of: 0.1% by mass of the anionic dispersion agent, relative to the total mass of the aqueous solution; and water. Then, the aqueous solution was used to measure the surface tension at 25°C by Wilhelmy method (which may be referred to as plate method or vertical plate method). Specifically, when a plate that is a measuring unit makes contact with the surface of the aqueous solution, the aqueous solution wets the plate upwards. At the time, the surface tension acts along the perimeter of the plate, and the force that pulls the plate into the aqueous solution generates. The pulling force F (force that acts on the plate, measuring force) is read, and the surface tension r is determined by the following formula. In the formula, L represents the perimeter (m) of the plate, and θ represents the contact angle of the plate and the aqueous solution. r = F/(L×cosθ) [formula]
The surface tension may be measured using a commercially available measurement device, such as static surface tension measurement system (manufactured by DKSH Japan, under the model number of TD 1C or TD 3).
Each dispersing agent used in the examples and comparative examples was diluted with water to prepare an aqueous solution of the dispersing agent consisting of: 0.1% by mass of the anionic dispersion agent, relative to the total mass of the aqueous solution; and water. Then, the resultant aqueous solution of the dispersing agent was used to measure the surface tension at 25°C by Wilhelmy method.

surface tension at 25°C (listed as compound (II-1)) [mN/m] | Molecule | surface tension at 25°C [mN/m]
30.7 | Ammonium polyoxyethylene alkylether sulfate [Example D-6] | 38.8
– | CCCCC(CC)COCCOCCOP(=O)([O-])O.[Na+] [Example D-4, Polyoxyalkylene alkylether phosphoric acid ester] | 30.7
